Common to all, as to type: biochemical
What all share (conditions): acryloyl-CoA made in situ by D. shibae PrpE from 0.5 mM acrylate, CoA and ATP; 1 uM RdAcuH, 5 min, 5 mM MgCl2, 100 mM Tris-HCl pH 8.0

The target in test [1] is T1, RdAcuH (Roseovarius nubinhibens, UniProt A3SKA6).
T1 construct: gene ISM_05820; no signal peptide; pET-22b (NdeI/XhoI) in E. coli BL21(DE3), Ni-NTA purified; active site between NTD of one subunit and CTD of the neighbouring subunit
T1 sequence (A3SKA6 1-258): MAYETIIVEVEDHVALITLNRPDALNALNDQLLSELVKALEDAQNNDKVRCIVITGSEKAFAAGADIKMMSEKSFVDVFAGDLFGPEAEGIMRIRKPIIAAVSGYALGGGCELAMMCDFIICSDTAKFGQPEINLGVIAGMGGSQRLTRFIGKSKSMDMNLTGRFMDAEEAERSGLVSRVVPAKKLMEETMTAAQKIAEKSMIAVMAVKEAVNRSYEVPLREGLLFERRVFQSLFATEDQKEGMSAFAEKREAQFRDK
In words: HPLC / LC-MS of hydration to 3-HP-CoA.

Test [2] deals with T2, RdAcuH (Roseovarius nubinhibens, UniProt A3SKA6, E112A).
T2 construct: gene ISM_05820; no signal peptide; pET-22b (NdeI/XhoI) in E. coli BL21(DE3), Ni-NTA purified; active site between NTD of one subunit and CTD of the neighbouring subunit
T2 sequence (A3SKA6 entry or part of it E112A): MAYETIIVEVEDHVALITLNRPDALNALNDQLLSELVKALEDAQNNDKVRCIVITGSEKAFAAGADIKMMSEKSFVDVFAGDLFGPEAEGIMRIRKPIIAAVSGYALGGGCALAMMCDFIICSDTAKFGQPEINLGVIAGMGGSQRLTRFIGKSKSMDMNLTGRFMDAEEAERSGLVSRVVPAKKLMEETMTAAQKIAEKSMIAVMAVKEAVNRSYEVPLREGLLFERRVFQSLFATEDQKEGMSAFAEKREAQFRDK
Description: relative activity, 3-HP-CoA formation by HPLC / LC-MS.

Test [3] addresses T3, RdAcuH (Roseovarius nubinhibens, UniProt A3SKA6, E132A).
T3 construct: gene ISM_05820; no signal peptide; pET-22b (NdeI/XhoI) in E. coli BL21(DE3), Ni-NTA purified; active site between NTD of one subunit and CTD of the neighbouring subunit
Described as above.

The structures appear in SMILES notation.

T3 sequence (A3SKA6 entry or part of it E132A): as the sequence (A3SKA6 entry or part of it E112A) above, with A112E, E132A counted along it

As for `CC(C)(COP(=O)(O)OP(=O)(O)OC[C@H]1O[C@@H](n2cnc3c(N)ncnc32)[C@H](O)[C@@H]1OP(=O)(O)O)[C@@H](O)C(=O)NCCC(=O)NCCSC(=O)CCO` [3-HP-CoA], on RdAcuH [1], the “HPLC / LC-MS of hydration to 3-HP-CoA” value was “RdAcuH has acryloyl-CoA hydratase activity and can catalyze acryloyl-CoA to 3-HP-CoA”.

Turning to `C=CC(=O)SCCNC(=O)CCNC(=O)[C@H](O)C(C)(C)COP(=O)(O)OP(=O)(O)OC[C@H]1O[C@@H](n2cnc3c(N)ncnc32)[C@H](O)[C@@H]1OP(=O)(O)O` [acryloyl-CoA], at RdAcuH [1], the “HPLC / LC-MS of hydration to 3-HP-CoA” value was “acryloyl-CoA was hydrated by RdAcuH and 3-HP-CoA was produced”. The relative activity entry on RdAcuH [2] and on RdAcuH [3] was “mutations on each of the glutamates to alanine resulted in the inactivation of RdAcuH” each time.

(Values after article PMC5651017, “Molecular Insight into the Acryloyl-CoA Hydration by AcuH for Acrylate Detoxification in Dimethylsulfoniopropionate-Catabolizing Bacteria” (Frontiers in Microbiology, 2017).)
